Measured values: US11464749B2, “Bismuth-thiol compositions and methods of use” (Microbion Corporation, priority 2018, dated 2022)
Values after ≈ are worked out from the molar mass of the structure shown. Values joined by “and” are separate entries in the source; they are usually repeats but may differ in a detail not shown here. Equal entries are not always repeated. Where two headings read alike, the source gives them in different places.

Key:
B. cenocepacia = assay: Broth microdilution MIC (Example 10); conditions: initial MIC testing
Burkholderia spp. = assay: organism not typed; type: cell-based; conditions: during FIC testing; B. multivorans isolate 1795 (MEM-I, CIP-R)
[1] = Single-dose rat PK comparing inhalation, IV and oral dosing
Method: Blood Collection for Bioanalytical Analysis: Following exposure, non-terminal blood collections were performed on 2 animals per sex at 0.5, 2, and 8 hours post exposure. Approximately 1 mL of systemic whole blood was collected by jugular vein into tubes containing K3EDTA as an anticoagulant. The tubes were flash frozen with liquid nitrogen stored without processing at −70 to −90° C. until shipping for analysis using ICP-MS assay for quantitation of bismuth as a surrogate for BisEDT.
Increasing the dose and interval leads to larger fluctuations in tissue and blood levels between peak (after dosing) and trough levels (prior to dosing).

[2] = Face mask inhalation in beagle dogs: clinical chemistry; type: in vivo; conditions: sampling times not given
Method: Once adequately conditioned to the restraint device and face-masks, the animals are individually exposed to the test article aerosols. Animals receive a single face-mask inhalation exposure in a ramp study design to test article aerosols for up to 60 min. Animal observations during and post exposure determine the tolerance of inhaled BisEDT aerosols.
Group 1 (vehicle) are exposed to a vehicle atmosphere for 30 minutes. Group 2 (50 μg/kg) are exposed to BisEDT for 30 minutes. Target concentrations and exposure durations for Groups 3-5 are based on the presence of any toxicity via clinical observations or gross necropsy findings. In each of Groups 3-5, if no adverse clinical signs of toxicity are observed, the next groups' exposure will be conducted at a higher target dose. If adverse clinical signs of toxicity are observed, the next groups' exposure will be conducted at a lower target dose. This approach is repeated for all BisEDT doses. The final documented exposure duration is the maximum tolerated dose or the maximum feasible dose.
The aerosol generation system couples a commercially available compressed air jet nebulizer to a chamber that allows the aerosols to transition to the animals. Exposure is by face-mask inhalation per the study design above. […] Formulation concentration and exposure duration are modulated to achieve target doses if necessary.
Blood Collections and Bioanalytical Analysis: Blood are collected for pharmacokinetic (PK) analysis prior to exposure, then at 4 hr (±5 min) post exposure, and again on Day 1, Day 2, Day 7 (pre- and 4 hr (±5 min)-post exposure), Day 8, Day 9, Day 10, Day 11, Day 12, Day 13, and Day 14. A total of 0.25 mL is collected at each timepoint. No PK blood is collected from the vehicle control (Group 1) animals; only animals exposed to BisEDT have blood collected for PK analysis. Collected samples are flash frozen without processing for shipment to Medpace for bioanalytical analysis. Additional blood is collected from all animals in all groups for hematology (1 mL) and clinical chemistry (1 mL) at baseline, Day 7 (pre-exposure), and again at euthanasia. Blood (2-2 mL) is collected from all animals at necropsy for coagulation analysis (d-Dimer, fibrinogen, PT, and PTT).
For clinical chemistry analyses, whole blood (1 mL) is placed into serum separator or clot tube and […] by centrifugation at a minimum of 1300 g at 2 to 8° C. for 10 (±1) min. Plasma samples are stored at −70 to −90° C. until analysis.
Clinical chemistry samples are analyzed on a Hitachi Modular Analytics Clinical Chemistry System (Roche Diagnostics, Indianapolis, Ind.).

anaerobes = assay: Agar dilution MIC (Example 11); type: cell-based; conditions: read-out: MIC values
[3] = tested on: beta-hemolytic streptococci; assay: Broth microdilution MIC (Example 11); conditions: read-out: MIC values
Neisseria gonorrhoeae = assay: Agar dilution MIC (Example 11); type: cell-based
[4] = 24 hours after single inhalation dose
[5] = 4 days (96 hrs) after single inhalation dose
[6] = Grp 1 (1001 Male, 1002 Female, Avg), 3 lines per subject
[7] = Grp 2 (2001 Male, 2002 Female, Avg), 3 lines per subject
[8] = Grp 3 (3001 Male, 3002 Female, Avg), 3 lines per subject
[9] = Grp 4 (4001 Male, 4004 Female, Avg; 4002 Female, 4003 Male), 2-3 lines per subject

C[C@@H](O)[C@H]1C(=O)N2C(C(=O)O)=C(S[C@@H]3CN[C@H](C(=O)N(C)C)C3)[C@H](C)[C@H]12 [MEM]
MIC (B. cenocepacia; B. cenocepacia isolate 0548 (CIP-R)): 4 µg/mL (≈ 10.4 µM)
MIC (B. cenocepacia; B. cenocepacia isolate 0813 (CPI-I)): 2 µg/mL (≈ 5.22 µM)
MIC (B. cenocepacia; B. cenocepacia isolate 1631): 4 µg/mL (≈ 10.4 µM)
MIC (B. cenocepacia; B. cenocepacia isolate 1783): 4 µg/mL (≈ 10.4 µM)
MIC (B. cenocepacia; B. cenocepacia isolate 8555): 4 µg/mL (≈ 10.4 µM)
MIC (Burkholderia spp.): 4 µg/mL

C1C[S][Bi]([S]CC[S][Bi]2[S]CC[S]2)[S]1 [BisEDT, bismuth-1,2-ethanedithiol]
lung levels after IV dosing vs inhalation group ([1]; 100 μg/kg IV): < 5%
tolerability ([1]; 100 μg/kg inhalation and IV and 250 μg/kg oral): tolerated
lung levels after oral dosing ([1]; 250 μg/kg oral): no lung levels
equated concentration in lung fluid [1, 4]: 123 µg/mL
lung tissue concentration [1, 4]: 4,093 ng/g
equated concentration in lung fluid [1, 5]: 78 µg/mL
lung tissue concentration [1, 5]: 2,600 ng/g
duration of initial distribution into tissues ([1]; IV dosing): 18 h
Kp ([1]; both, lung versus whole blood, inhaled, 100 μg/kg): ~10
AGR [2, 6]: 2.6 and 1.9 (2×) and 2.1 (2×)
ALB [2, 6]: 3.7 g/dL
ALPK [2, 6]: 125 IU/L and 120 IU/L and 248 IU/L and 243 IU/L and 235 IU/L and 91 IU/L
ALT [2, 6]: 26 IU/L and 27 IU/L and 29 IU/L and 21 IU/L
AST [2, 6]: 33 IU/L (2×) and 29 IU/L (2×) and 27 IU/L
BUN [2, 6]: 13 mg/dL (2×) and 17 mg/dL
CA2 [2, 6]: 10.3 mg/dL
CHOL [2, 6]: 129 mg/dL and 116 mg/dL and 132 mg/dL and 130 mg/dL and 107 mg/dL
CREA [2, 6]: 0.5 mg/dL
GLOB [2, 6]: 1.4 g/dL and 1.5 g/dL and 1.8 g/dL
GLUC [2, 6]: 88 mg/dL and 89 mg/dL and 90 mg/dL and 78 mg/dL and 92 mg/dL (2×)
K [2, 6]: 4.5 mmo/L and 4.7 mmo/L (2×) and 4.2 mmo/L and 5.1 mmo/L
Na [2, 6]: 150 mmo/L
TP [2, 6]: 5.5 g/dL and 4.9 g/dL
TRIG [2, 6]: 32 mg/dL and 29 mg/dL and 53 mg/dL and 39 mg/dL and 38 mg/dL and 37 mg/dL
AGR [2, 7]: 1.9 and 2.0 and 1.7 and 2.3 (2×)
ALB [2, 7]: 3.4 g/dL and 3.7 g/dL
ALT [2, 7]: 22 IU/L (3×) and 18 IU/L and 29 IU/L and 27 IU/L
AST [2, 7]: 48 IU/L and 36 IU/L (2×) and 35 IU/L and 41 IU/L and 38 IU/L
BUN [2, 7]: 12 mg/dL and 16 mg/dL and 14 mg/dL (2×)
CHOL [2, 7]: 114 mg/dL
Cl [2, 7]: 108 mmo/L and 110 mmo/L and 114 mmo/L
GLOB [2, 7]: 2.0 g/dL and 1.9 g/dL and 1.6 g/dL (2×)
GLUC [2, 7]: 91 mg/dL and 97 mg/dL and 95 mg/dL and 89 mg/dL
K [2, 7]: 4.5 mmo/L and 4.9 mmo/L and 5.0 mmo/L and 5.2 mmo/L and 4.6 mmo/L
TP [2, 7]: 5.0 g/dL and 5.5 g/dL and 5.3 g/dL
TRIG [2, 7]: 66 mg/dL and 80 mg/dL and 63 mg/dL and 38 mg/dL and 39 mg/dL and 31 mg/dL
AGR [2, 8]: 2.0 (2×) and 2.1 and 2.3 and 1.8 and 2.6
ALB [2, 8]: 3.2 g/dL and 3.7 g/dL
ALPK [2, 8]: 90 IU/L
ALT [2, 8]: 26 IU/L and 24 IU/L and 28 IU/L and 20 IU/L (2×)
AST [2, 8]: 33 IU/L and 28 IU/L
BUN [2, 8]: 13 mg/dL and 17 mg/dL and 33 mg/dL and 11 mg/dL and 25 mg/dL
CHOL [2, 8]: 100 mg/dL
CREA [2, 8]: 0.7 mg/dL and 0.5 mg/dL and 0.9 mg/dL
Cl [2, 8]: 110 mmo/L
GLOB [2, 8]: 1.7 g/dL and 2.0 g/dL and 1.4 g/dL
GLUC [2, 8]: 100 mg/dL and 88 mg/dL and 51 mg/dL and 112 mg/dL and 90 mg/dL and 65 mg/dL
K [2, 8]: 4.7 mmo/L and 5.8 mmo/L and 5.5 mmo/L and 5.3 mmo/L
TP [2, 8]: 4.8 g/dL and 5.0 g/dL (2×) and 5.5 g/dL
TRIG [2, 8]: 26 mg/dL and 34 mg/dL (2×) and 52 mg/dL and 43 mg/dL and 58 mg/dL
AGR [2, 9]: 2.3 and 2.0 and 1.7 (2×) and 1.6
ALB [2, 9]: 3.6 g/dL and 3.2 g/dL
ALT [2, 9]: 27 IU/L (2×) and 25 IU/L and 24 IU/L and 20 IU/L and 21 IU/L and 40 IU/L and 23 IU/L
AST [2, 9]: 32 IU/L (2×) and 34 IU/L and 38 IU/L and 31 IU/L and 35 IU/L and 30 IU/L
BUN [2, 9]: 11 mg/dL (2×) and 16 mg/dL and 15 mg/dL
CHOL [2, 9]: 147 mg/dL and 125 mg/dL and 124 mg/dL and 182 mg/dL and 169 mg/dL and 176 mg/dL
CREA [2, 9]: 0.5 mg/dL
GLOB [2, 9]: 1.6 g/dL and 2.1 g/dL (2×) and 2.0 g/dL
GLUC [2, 9]: 82 mg/dL and 86 mg/dL and 70 mg/dL and 96 mg/dL and 79 mg/dL and 109 mg/dL and 81 mg/dL
K [2, 9]: 4.8 mmo/L and 4.6 mmo/L and 5.1 mmo/L and 4.3 mmo/L and 5.3 mmo/L (2×) and 4.9 mmo/L (2×)
TP [2, 9]: 4.9 g/dL and 5.1 g/dL and 5.6 g/dL and 5.5 g/dL and 5.4 g/dL (2×)
TRIG [2, 9]: 49 mg/dL (2×) and 46 mg/dL and 40 mg/dL and 53 mg/dL (2×) and 44 mg/dL and 34 mg/dL and 41 mg/dL and 55 mg/dL

CC(S)C(C)S.[Bi] (stereo not shown) [BisBDT, bismuth-2,3-butanedithiol]
MIC (anaerobes): 1 to 4 µg/mL
MIC [3]: 0.03 to 2 µg/mL
MIC (Neisseria gonorrhoeae; ATCC49226, N. gonorrhoeae MMX 683 (ATCC 49226), QC): 0.06 µg/mL
MIC (Neisseria gonorrhoeae; N. gonorrhoeae MMX 6757, CTX NS): 0.06 µg/mL
MIC (Neisseria gonorrhoeae; N. gonorrhoeae MMX 6791, CIP^R): 0.12 µg/mL
MIC (Neisseria gonorrhoeae; N. gonorrhoeae MMX 6792, CIP^R): 0.12 µg/mL
MIC (Neisseria gonorrhoeae; N. gonorrhoeae MMX 6793, CIP^R): 0.25 µg/mL
MIC (Neisseria gonorrhoeae; read-out: MIC values, QC isolate, ciprofloxacin-resistant, ceftriaxone non-susceptible isolates): 0.06 to 0.25 µg/mL
